Data as given in BindingDB's records for doi:10.1016/j.bmcl.2011.07.114 (Pfizer, 2011).

Target: Histamine H4 receptor (Homo sapiens, UniProt Q9H3N8)
Assay: Displacement of [3H]histamine from human histamine H4 receptor expressed in CHO cells after 90 mins by scintillation counting technique

| Ki [µM] | Compound |
| --- | --- |
| 20 | COCc1ccc(CN2CC[C@H](Nc3cc(NCCC(C)(C)C)ncn3)C2)o1 |
| 20 | CC(C)(C)CCNc1cc(N[C@H]2CCN(Cc3cccc(F)c3O)C2)ncn1 |
